# Values quoted from earlier work as cited in patent US20250099551A1, “THERMOSTABLE FORMULATION OF A21G HUMAN INSULIN” (priority 2018, published 2025).
# Conditions: 25° C.
row,Metal binding stability constant log K for zinc,Compound
1,6.91,N[C@@H](Cc1c[nH]cn1)C(=O)O [histidine]
2,4.93,O=C(O)CC(O)(CC(=O)O)C(=O)O [citrate]
3,12.6,O=C(O)CN(CCOCCOCCN(CC(=O)O)CC(=O)O)CC(=O)O [EGTA]

row,Compound,Metal binding stability constant log K for zinc
1,O=C(O)CN(CCN(CC(=O)O)CC(=O)O)CC(=O)O [EDTA],14.5
